# Data taken from patent US20090093471A1, “Methods of Treating Nervous Disorders” (priority 2005, published 2009).
# pIC50, pKd: −log10 of the molar value. Where two headings read alike, the source gives them in different places.
# Legend:
# [1] = system: Aβ 40 and Aβ 42 production in swAPP-HEK293 cells; assay: Secreted Aβ 40 and Aβ 42 ELISA, swAPP-HEK293 cells; assay type: cell-based, human; conditions: for secreted Aβ 40 and Aβ 42: swAPP-HEK293, 18 h, 20, 10 or 2 μM
# Source text: Human APP harbouring the “Swedish” mutation (swAPP) is more prone to processing than wtAPP.
# RhoA = RhoA (Homo sapiens, UniProt P61586); conditions: Gao et al. 2004, Picard et al., submitted, cited from earlier work
# Sequence of RhoA (P61586 whole entry, species assumed): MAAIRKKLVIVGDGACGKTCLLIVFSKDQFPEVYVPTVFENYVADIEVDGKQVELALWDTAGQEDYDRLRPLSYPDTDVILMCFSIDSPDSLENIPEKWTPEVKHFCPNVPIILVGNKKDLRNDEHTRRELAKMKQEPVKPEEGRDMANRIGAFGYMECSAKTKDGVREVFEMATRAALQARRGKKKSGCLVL
# [2] = system: APP processing (α-secretase pathway, CTFs) in swAPP-HEK293 cells; assay: Western blot of APP, sAPPα, C83 and C99 in swAPP-HEK293 cells
# Experimental: swAPP-HEK293 cells were scraped and lysed in CelLytic-M (Sigma). Protein concentrations were determined by the Bradford procedure. Equal quantity of proteins were separated on a 10% SDS-PAGE gel and transferred to Hybond-C (Amersham Biosciences) membranes. After transfer, membranes were blocked with 5% nonfat milk and incubated overnight with the primary antibody anti-APP antibody at 1/1000 (Serotec), allowing the detection of both APP and C83-C99 CTFs under specific separation and exposure conditions. For sAPPα detection, cells were allowed to secrete for 7 h. Media were collected, centrifuged and then equal amount of secretate were loaded on 10% SDS-PAGE and Western blotted with 6E10 monoclonal antibody (1/1000).
# [3] = system: Notch-1 (NotchΔE) cleavage; assay: NotchΔE transfection and Notch-1 cleavage assay in Hela cells; conditions: Hela cells overexpressing NotchΔE, up to 16 hours; DAPT 2 μM
# [4] = system: intracellular Aβ 40 and Aβ 42 in swAPP-HEK293 cells; assay: Intracellular (cell-associated) Aβ 40 and Aβ 42 ELISA, swAPP-HEK293 cells; assay type: cell-based, human; conditions: qualitative; for Aβ 40 and Aβ 42 intracellular levels: swAPP-HEK293 cell lysates, normalized to cellular protein
# Rac1 = Rac1 (Homo sapiens, UniProt P63000); assay: Endogenous Rac GTPase activation assay (GST-Pak-PBD pull-down of GTP-Rac1) in U87-MG cells; conditions: qualitative
# Experimental: U87-MG cells were grown in a 150-mm-diameter dish until they reached 80% confluency. The cells were then treated with the test compounds or the solvent only. Cells were then lyzed in a buffer containing 0.5% triton, 10 mM Tris pH7.5, mM KCl, 120 mM NaCl and 1.8 mM CaCl2. Lysates were clarified, the protein concentrations were normalized, and the GTP-bound Rac1 in the lysates were measured using the Rac Activation Assay Biochem kit (Cytoskeleton) as per manufacturer's recommendations.
# We used a GST-fusion protein containing the p21-binding domain (PBD) of human p21-activated kinase 1 (Pak1) to affinity precipitate endogenous active Rac1 (GTP-Rac1) from cell lysates to monitor the activation of the small GTPase Rac1.
# γ-secretase [5] = assay: γ-Secretase assay, de novo Aβ generation from membranes of compound-treated cells; assay type: cell-based; conditions: cells incubated with compound for 16 hours
# Experimental: We implemented a an assay allowing de novo Aβ generation in vitro, using cell membranes as the source of γ-secretase. Preparation of solubilized γ-secretase fractions was performed essentially as described previously (Li, Y. M., Lai, M. T., Xu, M., Huang, Q., DiMuzio-Mower, J., Sardana, M. K., Shi, X. P., Yin, K. C., Shafer, J. A., and Gardell, S. J. (2000) Proc. Natl. Acad. Sci. U.S.A. 97, 6138-6143) with the above modifications. All incubations were performed in the presence of Complete Protease Inhibitor Cocktail. Confluent plates swAPP-HEK293 cells were lysed in 1 ml of ice-cold CelLytic-M (Sigma) and incubated 15 minutes at 4° C. on a shaker. Cell debris and nuclei were removed by centrifugation at 1000×g for 15 min at 4° C. […] Solubilized γ-secretase activity was induced at 37° C. for 2 h with or without the indicated treatments and Aβ 40 generated de novo was quantified by ELISA. […]
# To test this hypothesis, we used an established γ-secretase assay allowing de novo Aβ generation in vitro, using cell membranes as the source of γ-secretase. Solubilized γ-secretase fractions are activated in a γ-secretase buffer (see experimental procedures) and activity is monitored following either the cleavage of an internally quenched fluorogenic γ-secretase substrate, or endogenous C99 itself. […] C99 cleavage by γ-secretase was measured by de novo Aβ 40 generation. […]
# [6] = system: constitutively active mutant Rac1-Val12 (RACV12); assay: Transient expression luciferase reporter assays in NIH3T3 cells cotransfected with RacV12; conditions: c-Jun, NF-KB and cyclin D1 reporter constructs; qualitative
# Experimental: Briefly, 250,000 NIH3T3 cells/well were seeded in 6-well plates and were co-transfected 24 h later with plasmids prK5-RacV12 and reporter constructs using LipofectAMINE Plus (Invitrogen). Compound of interest was added after the incubation with LipofectAmine. 24 h after transfection, cells were starved for an additional 24 h with Dulbecco's modified Eagle medium supplemented with 0.5% FBS together with the appropriate doses of test compounds or the solvent only. Analyses of the cell lysates of the transiently transfected NIH3T3 cells were performed using the Luciferase Assay System (Promega) and Fluoroscan Ascent FL plate reader (Thermo LabSystems). […] However, consistent and reproducible data were obtained in different assays performed using several plasmid preparations, and we monitored protein concentration for yield in the cell extracts as well as expression of the tagged, exogenous protein by Western blotting.
# [7] = system: Aβ 40 production in SH-SY5Y cells; conditions: for reduction in secreted Aβ 40 levels: 18 h
# Experimental: Cells were treated 48 hours after plating in 10 cm plates with various concentrations of the indicated molecules, or DMSO as the vehicle for 16 hours. To do so, medium was replaced with 5 ml of new medium in which treatments were performed. Total DMSO dilution was 1/1000 in all cases. Cells were allowed to secrete in 5 ml medium for 7 hours in the presence of 1 μM phosphoramidon.
# Stably transfected swAPP-HEK293 cells were incubated for 7 hours in the presence of phosphoramidon (1 μM) (Sigma). Media and cell lysates were collected as above, centrifuged, normalized to total protein and assayed for Aβ 40 and Aβ 42 by sandwich ELISA according to the manufacturer's instructions (Biosource International). For Aβ 42 detection, samples were concentrated on YM3 Microcon columns (Millipore). […] Right cortices were homogenized for 3 h at room temperature in 5M Guanidine-Hcl, 50 mM Tris-Hcl, pH8 with a protease inhibitor mixture (Roche Diagnostics). Tissue homogenates were diluted 1:1 (v/v) in BSAT-DPBS buffer (Dulbecco's phosphate buffered saline with 5% BSA and 0.03% Tween-20), pH 7.4, and were centrifuged at 20,000 g for 20 min at 4° C. Supernatants were diluted 1:1 (v/v) in ELISA kit sample buffer, normalized to total protein and assayed for Aβ 40 and Aβ 42 by sandwich ELISA according to the manufacturer's instructions. For Aβ 42 detection, samples were concentrated on YM3 Microcon columns (Millipore).
# γ-secretase [8] = assay: γ-Secretase assay, compound added to solubilized γ-secretase preparations; assay type: biochemical
# Experimental: We implemented a an assay allowing de novo Aβ generation in vitro, using cell membranes as the source of γ-secretase. Preparation of solubilized γ-secretase fractions was performed essentially as described previously (Li, Y. M., Lai, M. T., Xu, M., Huang, Q., DiMuzio-Mower, J., Sardana, M. K., Shi, X. P., Yin, K. C., Shafer, J. A., and Gardell, S. J. (2000) Proc. Natl. Acad. Sci. U.S.A. 97, 6138-6143) with the above modifications. All incubations were performed in the presence of Complete Protease Inhibitor Cocktail. Confluent plates swAPP-HEK293 cells were lysed in 1 ml of ice-cold CelLytic-M (Sigma) and incubated 15 minutes at 4° C. on a shaker. Cell debris and nuclei were removed by centrifugation at 1000×g for 15 min at 4° C. For membrane isolation, the supernatant solutions were centrifuged at 20,000×g for 1 hour at 4° C. After centrifugation, the ensuing pellets were resuspended in 100 μl activity buffer (150 mM Na Citrate, pH 6.4)/cells plate and were defined as solubilized γ-secretase, as previously shown by Pinnix et al. (2001). Solubilized γ-secretase activity was induced at 37° C. for 2 h with or without the indicated treatments and Aβ 40 generated de novo was quantified by ELISA. Control experiments used the internally quenched fluorogenic γ-secretase substrate NMA-[…](DNP)-DRDRDR-NH2 (λex=355 nm; λem=440 nm) from Calbiochem, which contains the C-terminal β-APP amino acid sequence that is cleaved by γ-secretase and the γ-secretase inhibitor N—[N-(3,5-Difluorophenacetyl-L-alanyl)]-S-phenylglycine t-Butyl Ester (DAPT, Calbiochem).
# To test this hypothesis, we used an established γ-secretase assay allowing de novo Aβ generation in vitro, using cell membranes as the source of γ-secretase. Solubilized γ-secretase fractions are activated in a γ-secretase buffer (see experimental procedures) and activity is monitored following either the cleavage of an internally quenched fluorogenic γ-secretase substrate, or endogenous C99 itself. The well characterized cell permeable γ-secretase inhibitor DAPT (Lanzn, T. A., Himesn, C. S., Pallanten, G., Adamsn, L., Yamazakin, S., Amoren, B., and Merchantn, K. M. (2003) J. Pharmacol. Exp. Ther. 305, 864-871) is included as control. C99 cleavage by γ-secretase was measured by de novo Aβ 40 generation. De novo Aβ 40 production increased with time and was optimal at 37° C. (FIG. 4 B). […] When temperature decreased, Aβ 40 generation decreased in parallel and was abolished at 4° C., in accordance with an enzymatic processing. […] (data not shown).
# [9] = target: T1, recombinant human BACE protein (Homo sapiens, UniProt P56817); assay: BACE fluorogenic assay with recombinant protein; assay type: biochemical; conditions: recombinant human BACE 1 μg/well, pH4.4; compound 38 at 2, 10 or 20 μM and higher
# T1 construct: purchased R&D Systems
# T1 sequence (P56817 46-501): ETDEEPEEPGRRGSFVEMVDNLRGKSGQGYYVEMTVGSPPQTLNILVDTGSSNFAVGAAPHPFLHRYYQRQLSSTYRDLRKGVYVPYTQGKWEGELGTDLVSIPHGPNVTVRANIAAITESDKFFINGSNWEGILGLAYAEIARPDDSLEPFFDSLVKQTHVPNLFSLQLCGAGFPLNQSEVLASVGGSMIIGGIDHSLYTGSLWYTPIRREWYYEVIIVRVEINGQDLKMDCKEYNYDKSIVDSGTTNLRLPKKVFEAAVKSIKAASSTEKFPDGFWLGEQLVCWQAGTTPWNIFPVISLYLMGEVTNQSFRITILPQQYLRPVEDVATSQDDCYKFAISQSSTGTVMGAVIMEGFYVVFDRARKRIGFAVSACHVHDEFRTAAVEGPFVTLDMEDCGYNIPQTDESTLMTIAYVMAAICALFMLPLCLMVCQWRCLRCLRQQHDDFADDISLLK
# Source text: (§1) The human BACE1 cDNA was generated by RT-PCR from human brain mRNA samples (Biocat, Germany) and cloned into pcDNA3 expression vector. Subsequently, a HEK293 cell line stably expressing BACE1 was generated and used as a source of BACE1. An in vitro assay was developed based on previous studies (Ermolieff, J., Loy, J. A., Koelsch, G., and Tang, J. (2000) Biochemistry 39, 12450-12456) using a quenched fluorogenic substrate containing the Swedish mutation MCA-[…](DNP)-CONH2 (Substrate V, Calbiochem). Proteins were extracted in 20 mM MES/1% Triton X100 plus protease inhibitor cocktail by incubation on ice for 30 minutes. The assay was carried out in black 96 well plates (ATGC) in a volume of 200 μl reaction buffer (25 mM MES/25 mM Sodium Acetate/25 mM Tris, pH 4.4), containing 25 μl of the preparation plus 15 μM peptide Substrate V. Excitation was performed at 320 nm and the reaction kinetics were monitored by measuring the fluorescence emission at 420 nm on a Fluoroscan Ascent FL plate reader (Thermo LabSystems). Controls included purified recombinant human BACE501 protein (R&D Systems) diluted at 1 μg/well in 200 μl of 0.1 M Na Acetate buffer (pH 4.4), the BACE substrate analog inhibitor III (H-Glu-Val-Asn-Statine-Val-Ala-Glu-Phe-NH2, Calbiochem), or substrate alone, and background fluorescence was subtracted to recorded BACE activitiy. […]
# BACE1 = target: T2, BACE1 (Homo sapiens, UniProt P56817); assay: Cellular BACE activity, HEK293 cells stably expressing BACE1; assay type: cell-based; conditions: cells incubated 24 hours with compound 38 at 2, 10 or 20 μM
# T2 construct: expressed in transfected cells; host or cells: HEK293
# T2 sequence (P56817 46-501): as above
# Source text: as §1
# [10] = rat, in vivo
# Cdc42 = Cdc42 (Homo sapiens, UniProt P60953); conditions: Gao et al. 2004; Picard et al., submitted; cited from earlier work
# Sequence of Cdc42 (P60953 whole entry, species assumed): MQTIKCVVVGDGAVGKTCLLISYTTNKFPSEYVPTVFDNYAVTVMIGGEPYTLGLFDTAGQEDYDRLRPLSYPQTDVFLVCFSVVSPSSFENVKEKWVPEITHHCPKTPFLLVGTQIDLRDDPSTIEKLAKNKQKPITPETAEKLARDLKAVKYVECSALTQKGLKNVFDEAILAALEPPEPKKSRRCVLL
# [11] = rat, in vivo; remark: listed apart in the source
# Recombinant Rac2 = Recombinant Rac2 (Homo sapiens, UniProt P15153); assay: biochemical
# [12] = system: Rac1-dependent cytoskeleton rearrangements; conditions: Picard et al., submitted; cited from earlier work
# [13] = Acute toxicity and tolerability in rat; conditions: in vivo
# Recombinant Rac3 = Recombinant Rac3 (Homo sapiens, UniProt P60763); assay: biochemical
# [14] = Homo sapiens, read-out: IC50, secreted Aβ 40
molecule,measurement,setting,value
CCN(CC)CCCC(C)Nc1nc(C)cc(Nc2ccc3nc(C)cc(N)c3c2)n1 (racemic) [compound 49],pIC50,[1]; [14],4.31
same,inhibition at 50 µM,"[1]; Homo sapiens, read-out: inhibition of released Aβ 42",58%
same,secreted Aβ 40 levels,"[1]; swAPP-HEK293, various concentrations, qualitative",dose-dependently reduced secreted Aβ 40 levels
same,extracellular levels of Aβ 42,"[1]; swAPP-HEK293, qualitative",dose-dependently decreased
same,activity on / interaction with RhoA,RhoA,does not interact with cdc42 and RhoA
same,activity on / interaction with RhoA,RhoA; listed as NSC23766,not to affect the activity of Cdc42 or RhoA
same,"APP expression and maturation, α-secretase pathway (APP, C83, sAPPα)","[2]; swAPP-HEK293, 16 hours",no alterations
same,Notch cleavage (NICD by Western blot),[3],no alterations
same,intracellular Aβ 40,[4]; swAPP-HEK293,no intracellular accumulation of Aβ 40
same,intracellular levels of Aβ 42,[4]; swAPP-HEK293,dose-dependently decreased
"CN1CCN(Cc2cc(=O)c(OCCCCCOc3ncnc4ccccc34)co2)CC1 (racemic) [compound 53, 5-(5-(Quinazolin-4-yloxy)pentyloxy)-2-((4-methylpiperazin-1-yl)methyl)-4H-pyran-4-one]",secreted Aβ 40 and Aβ 42,[1]; qualitative,strictly inactive
same,Rac1 activation,Rac1,totally unable to inhibit Rac1 activation
same,de novo Aβ production from C99 (γ-secretase activity),γ-secretase [5],did not affect γ-secretase activity
same,Aβ 40 and Aβ 42 intracellular levels,[4],strictly inactive
same,luciferase activity from all 3 reporter constructs,[6],did not change luciferase activity
same,reducing Aβ levels,[7]; qualitative,strictly inactive
"C[C@H](NC(=O)Cc1cc(F)cc(F)c1)C(=O)N[C@H](C(=O)OC(C)(C)C)c1ccccc1 [DAPT, N—[N-(3,5-Difluorophenacetyl-L-alanyl)]-S-phenylglycine t-Butyl Ester, reference compound]",Aβ production (de novo Aβ 40 generation),"γ-secretase [8]; control inhibitors, DAPT at 2 μM",completely inhibited
same,Notch cleavage (NICD by Western blot),[3],potently inhibited
"Cl.Cl.O=c1cc(CN2CCOCC2)occ1OCCCCCSc1ccnc2cc(C(F)(F)F)ccc12 [compound 38, 5-(5-(7-(Trifluoromethyl)quinolin-4-ylthio)pentyloxy)-2-(morpholinomethyl)-4H-pyran-4-one dihydrochloride]",BACE activity (cleavage of fluorogenic Substrate V),[9],did not affect fluorescence
same,Aβ 40 and Aβ 42 levels,"[1]; swAPP-HEK293, 50 μM or above",below the detection limit
same,secreted Aβ 40 and Aβ 42,[1]; qualitative,dose-dependently inhibits both Aβ species
same,decrease in Aβ 42 levels,"brain Aβ 40 and Aβ 42; guinea pig, 40 mg/kg per day i.p., 15 days, just below significance",23.6%
same,lowering of brain Aβ 40,"brain Aβ 40 and Aβ 42; guinea pig, 40 mg/kg per day i.p., 15 days, p<0.05 Wilcoxon",37%
same,reduction in Aβ levels in vivo,brain Aβ 40 and Aβ 42; summary statement,~30%
same,C83 and C99 levels,brain Aβ 40 and Aβ 42; treated guinea pigs,No significant changes
same,full-length APP levels,brain Aβ 40 and Aβ 42; treated guinea pigs,no change
same,activity on / interaction with RhoA,RhoA,selective over cdc42 and RhoA
same,cellular BACE activity (fluorescence),BACE1,did not affect fluorescence
same,tolerability,[10],good tolerability
same,C99 level,[2]; swAPP-HEK293,dose-dependent increase in C99
same,level of full-length cytosolic and membranous APP,[2]; swAPP-HEK293,unchanged
same,C83 levels,"[2]; swAPP-HEK293, 20, 10 or 2 μM",neither affected sAPPα nor C83 levels
same,sAPPα levels secreted in culture medium,"[2]; swAPP-HEK293, 20, 10 or 2 μM",neither affected sAPPα nor C83 levels
same,de novo Aβ 40 generation from membrane preparations,"γ-secretase [8]; added to solubilized γ-secretase from untreated cells, 50 μM",did not change
same,de novo Aβ 40 generation from membrane preparations,γ-secretase [8]; concentrations as high as 4 mM,lack of effect
same,cleavage of fluorogenic γ-secretase substrate,γ-secretase [8]; direct addition,not a direct competitive inhibitor of γ-secretase
same,activity on / interaction with Cdc42,Cdc42,selective over cdc42 and RhoA
same,Notch cleavage (NICD by Western blot),[3],did not affect Notch cleavage
same,brain concentrations,"[11]; iv, 5 mg/kg",130 ng/g
same,brain concentrations,"[11]; po, 100 mg/kg",54 ng/g
same,genotoxicity (Ames test),Ames test,no genotoxicity
same,pKd,Recombinant Rac2,7.22
same,Rac1-dependent cytoskeleton rearrangements,[12],prevents
same,de novo Aβ production from C99 (γ-secretase activity),γ-secretase [5],dose-dependent reduction
same,LD50,[13]; iv,50 mg/kg
same,LD50,[13]; po,> 1000 mg/kg
same,Aβ 40 and Aβ 42 intracellular levels,[4],dose-dependent decrease
same,reduction in secreted Aβ 40 levels,[7]; 2 μM,12.9%
same,reduction in secreted Aβ 40 levels,[7]; 10 μM,30.1%
same,reduction in secreted Aβ 40 levels,[7]; 20 μM,79.8%
same,pIC50,[7]; [14],5.26
same,pKd,Recombinant Rac3,6.57
"H-Glu-Val-Asn-Statine-Val-Ala-Glu-Phe-NH2 [BACE Inhibitor III, reference compound]",BACE activity (cleavage of fluorogenic Substrate V),[9],abolished the cleavage
same,cellular BACE activity (fluorescence),BACE1,inhibited
